This is an account of results in patent US20140288110A1, “PPAR MODULATORS” (EVOLVA SA, priority 2006, published 2014).

Holding throughout (format): cell-based
For one assay, the target named is T1, mPPARdeltaLBD (Mus musculus, UniProt P35396).
T1 construct: expressed in transfected cells
T1 sequence (P35396 210-438 limits assumed): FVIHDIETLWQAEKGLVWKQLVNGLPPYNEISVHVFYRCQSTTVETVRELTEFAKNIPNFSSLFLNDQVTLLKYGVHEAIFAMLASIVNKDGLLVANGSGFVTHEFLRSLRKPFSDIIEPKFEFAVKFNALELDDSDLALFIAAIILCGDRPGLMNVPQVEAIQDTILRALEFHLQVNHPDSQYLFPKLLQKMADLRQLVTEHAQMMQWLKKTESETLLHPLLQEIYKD
The assay is described as follows: PPARdelta transactivation assay (mPPARdeltaLBD). As for the experimental part:
This example describes a transactivation assay for determining PPARdelta modulating activity.
DPD and other ligands are tested for their ability to transactivate PPARdelta essentially as described in Example 1.

The subject of a further assay is 3T3-L1 preadipocytes. Put plainly: Glucose uptake assay. Further details: dose or concentration left out as unconfirmed. The following applies: SN1. The protocol: Glucose uptake assays are important to establish the suitability of a compound for the treatment of insulin resistance.
Briefly, 3T3-L1 preadipocytes are grown in 12-well plates until confluence. Cells are washed with serum-free DMEM and incubated with 1 ml of the same medium at 37° C. for 1-2 h. The cells are then washed with […] (KRP) buffer and then incubated with 0.9 ml KRP buffer at 37° C. for 30 min. Insulin is added to the cells at 0, 0.3, 1 and 3 nM final concentration and incubated for 15 min at 37° C. Glucose uptake is initiated by the addition of 0.1 ml of Krebs-Ringer phosphate (KRP) buffer supplemented with 10 mM [^3H] 2-deoxy-D-glucose (1 mCi/l). After a 10 minute incubation at 37° C., the medium is aspirated and plates washed with ice-cold PBS to terminate the induced glucose uptake. The cells are lyzed with 0.5 ml 1% Triton X-100 and radioactivity levels determined using a scintillation counter. The results are depicted in FIG. 7.

The next assay has as its system 3T3-L1 cells. The assay is described as follows: Adipocyte differentiation assay, inhibition, Oil Red O staining. The protocol:
To test compounds as inhibitors of adipocyte differentiation, 3T3-L1 cells are grown as above until two-day postconfluence (designated day 0), after which the cells are induced to differentiate with DMEM containing 10% fetal bovine serum (FBS), 1 μM dexamethasone (Sigma), 0.5 mM methylisobutylxanthine (Sigma), 1 μg/ml insulin (Roche Molecular Biochemicals) and the test-compound. Cells induced to differentiate in presence of solvent of the test-compounds are used as positive control. After 48 h, the cells are re-fed with DMEM containing 10% FBS supplemented with the test compound or the positive control. From day 4, cells are grown in DMEM with 10% FBS and are changed every second day until day 8. At day 8, cells are stained with Oil Red O as described below.
Cells cultured as described above are used for Oil Red staining. Dishes are washed in PBS and cells were fixed in 3.7% paraformaldehyde for 1 h and stained with oil red O as described in (Hansen et al 1999). Oil red O solution stock solution is prepared by dissolving 0.5 g of Oil Red O (Sigma) in 100 ml of isopropanol. Oil re O working solution is prepared by diluting a stock solution with water (6:4) followed by filtration.

In the next assay the target is T2, hRXRαLBD (Homo sapiens, UniProt P19793).
T2 construct: expressed in transfected cells
T2 sequence (P19793 227-458 limits assumed): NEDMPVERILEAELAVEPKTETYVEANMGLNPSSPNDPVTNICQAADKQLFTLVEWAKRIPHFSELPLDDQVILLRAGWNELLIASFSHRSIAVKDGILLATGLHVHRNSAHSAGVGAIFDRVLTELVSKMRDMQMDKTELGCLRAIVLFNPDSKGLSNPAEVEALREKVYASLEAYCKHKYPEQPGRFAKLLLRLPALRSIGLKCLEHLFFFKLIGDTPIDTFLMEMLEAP
Put plainly: RXR transactivation assay (hRXRαLBD). The protocol: This example describes a retinoic acid X receptor transactivation assay.
Compounds are tested for their ability to transactivate RXR essentially as described in Example 1.

As for `O=C(O)CC/C=C\C[C@@H]1CO[C@H](c2ccccc2Cl)O[C@@H]1c1ccccc1O` (racemic) [SN1, 4-(Z)-6-(2-o-chlorophenyl-4-o-hydroxyphenyl-1,3-dioxan-cis-5-yl) hexenoic acid], the “increase of PPAR delta transactivation” value on mPPARdeltaLBD is recorded as “no or little increase in transactivation”. In addition, in the assay on 3T3-L1 preadipocytes, the “glucose uptake compared with Avandia” value is recorded as “same level of glucose uptake”. Further, the “inhibition of adipocyte differentiation” value with 3T3-L1 cells is on record as “no significant effect”. Further, on hRXRαLBD, the “increase of RXR transactivation” value is given as “no transactivation”.
